Measured values as given in patent US20130324522A1, “INSECT ODORANT RECEPTOR ANTAGONISTS” (THE ROCKEFELLER UNIVERSITY, priority 2010, published 2013).
Read-outs that look alike come from different tables or passages of the source.

Legend:
Format in all cases: cell-based
OR28/OR7 = OR28/OR7 (Anopheles gambiae, UniProt A0A1S4GFY3+Q7QCC7); test: Ca2+-imaging of stable HEK293T cell line OR28/OR7; conditions: for inhibition at 4 µM: HEK-293T, read-out: Percent Inhibition OR28 OR7
Procedure, shortened: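 Odorant solutions were prepared in HBSS at 9× final, with test compounds transferred in from […] DMSO stocks. These mixtures were applied to dye-loaded HEK293T stable receptor lines, and calcium responses were recorded in real time.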

mOREG = molecular target: T1, mOREG (Mus musculus, UniProt Q920P2); test: Ca2+-imaging, control receptor mOREG; conditions: for inhibition at 4 µM: compound applied at 4 μM, read-out: Percent Inhibition mOREG; for IC50: Table B
T1 sequence (Q920P2 1-313): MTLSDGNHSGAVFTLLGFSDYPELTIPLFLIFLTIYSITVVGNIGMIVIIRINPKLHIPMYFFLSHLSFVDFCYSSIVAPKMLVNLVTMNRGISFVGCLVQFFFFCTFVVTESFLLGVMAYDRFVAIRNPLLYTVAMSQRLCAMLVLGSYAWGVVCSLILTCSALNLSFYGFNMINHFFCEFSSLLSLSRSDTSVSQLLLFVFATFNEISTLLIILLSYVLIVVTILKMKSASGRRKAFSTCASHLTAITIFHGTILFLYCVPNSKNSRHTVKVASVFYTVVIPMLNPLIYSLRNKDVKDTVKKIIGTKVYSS
Procedure, shortened: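 Fluorescent Ca2+ responses (ex 485/em 525 nm) measured in real time after odorant application, with small compounds transferred into the HBSS odorant solutions beforehand. Cells were seeded on poly-D-lysine 2 days ahead and dye-loaded (Ca-4, 1.5 hr, room temperature); controls were HBSS buffer and ligand.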

[1] = molecular target: T2, serotonin receptor (5HT3) (Mus musculus, UniProt P23979); test: Ca2+-imaging of stable Flip-In T-Rex cell line 5HT3; conditions: for inhibition at 4 µM: compound applied at 4 μM, read-out: Percent Inhibition 5HT3; for IC50: Table B, read-out: IC50 5HT3
T2 construct: Full-length cDNAs for mosquito (Anopheles gambiae) odorant receptor; expressed in transfected cells
T2 sequence (P23979 24-489): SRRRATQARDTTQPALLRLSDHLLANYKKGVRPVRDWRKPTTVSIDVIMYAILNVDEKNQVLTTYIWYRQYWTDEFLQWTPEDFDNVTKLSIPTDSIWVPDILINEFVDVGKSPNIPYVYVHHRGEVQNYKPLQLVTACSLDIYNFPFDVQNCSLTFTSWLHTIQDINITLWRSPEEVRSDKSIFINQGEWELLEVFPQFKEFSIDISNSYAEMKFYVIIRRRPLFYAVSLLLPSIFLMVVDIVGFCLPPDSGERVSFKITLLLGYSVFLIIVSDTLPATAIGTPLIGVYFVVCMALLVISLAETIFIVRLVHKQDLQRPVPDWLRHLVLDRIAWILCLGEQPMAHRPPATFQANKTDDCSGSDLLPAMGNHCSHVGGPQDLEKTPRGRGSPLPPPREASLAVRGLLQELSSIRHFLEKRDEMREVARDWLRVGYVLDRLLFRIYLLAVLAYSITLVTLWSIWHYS
Procedure, shortened: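 Calcium responses were read on an FDSS6000 (485 nm excitation, 525 nm emission) after Ca-4 loading for 1.5 h at room temperature. Cells were tetracycline-induced Flp-In T-REx lines stably carrying fly Or47a/Or83b or mouse 5HT3, plated 2 days ahead; compounds were co-delivered in HBSS odorant solution.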

OR28/OR7, sequence (A0A1S4GFY3 entry or part of it): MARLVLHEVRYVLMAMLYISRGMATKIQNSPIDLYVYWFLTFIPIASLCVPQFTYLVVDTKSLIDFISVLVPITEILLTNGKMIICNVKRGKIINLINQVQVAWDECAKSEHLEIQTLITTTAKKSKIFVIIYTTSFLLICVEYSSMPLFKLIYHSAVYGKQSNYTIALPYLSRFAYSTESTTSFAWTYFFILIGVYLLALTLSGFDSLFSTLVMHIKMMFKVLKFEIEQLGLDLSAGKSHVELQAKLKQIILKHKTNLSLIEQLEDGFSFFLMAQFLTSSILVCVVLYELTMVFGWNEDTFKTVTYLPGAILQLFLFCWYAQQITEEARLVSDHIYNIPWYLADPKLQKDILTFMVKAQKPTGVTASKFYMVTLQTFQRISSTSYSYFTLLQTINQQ
OR28/OR7, sequence (Q7QCC7 whole entry): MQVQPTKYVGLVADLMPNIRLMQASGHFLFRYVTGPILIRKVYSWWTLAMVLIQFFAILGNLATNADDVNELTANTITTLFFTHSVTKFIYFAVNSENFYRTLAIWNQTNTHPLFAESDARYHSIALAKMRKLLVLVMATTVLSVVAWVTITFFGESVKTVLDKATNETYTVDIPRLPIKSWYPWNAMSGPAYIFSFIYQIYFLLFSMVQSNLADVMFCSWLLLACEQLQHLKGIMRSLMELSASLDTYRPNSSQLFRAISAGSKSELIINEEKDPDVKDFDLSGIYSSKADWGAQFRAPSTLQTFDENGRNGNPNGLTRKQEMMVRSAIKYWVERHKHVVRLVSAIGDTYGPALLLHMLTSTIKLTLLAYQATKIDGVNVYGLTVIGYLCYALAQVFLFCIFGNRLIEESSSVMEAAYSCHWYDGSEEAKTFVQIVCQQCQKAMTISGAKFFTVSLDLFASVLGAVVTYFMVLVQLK

Structure (SMILES) | inhibition at 4 µM (OR28/OR7; compound applied at 4 μM) [%] | IC50 (OR28/OR7; Table B, read-out: IC50 OR28) [nM] | inhibition at 4 µM (mOREG) [%] | inhibition at 4 µM [1] [%] | IC50 (mOREG) [nM] | IC50 (OR28/OR7) [nM] | inhibition at 4 µM (OR28/OR7) [%] | IC50 [1] [nM]
COCCN(Cc1cc(Cl)ccc1OS(=O)(=O)c1ccc(F)cc1)C(=O)C1CCC1 [RU-0035287] | > 75 | < 100 | 26 to 50 | 26 to 50 | – | – | – | –
CCN(CC)C(=O)Oc1ccc2c(ccn2Cc2cccc(C)c2)c1NC(=O)[C@H](C)OC(C)=O [RU-0075468] | > 75 | < 100 | > 75 | < 25 | < 100 | – | – | –
CN(C)c1nc(N(C)C)nc(N(C)C)n1 [RU-0000619] | 51 to 74 | < 100 | 51 to 74 | 26 to 50 | > 1000 | – | – | –
COc1nc(NC(C)C)nc(NC(C)C)n1 [RU-0001534] | – | – | < 25 | 26 to 50 | – | < 100 | > 75 | –
COC(=O)C(Cc1ccccc1)NC(=O)C1CC1(c1ccccc1)c1ccccc1 (stereo not drawn) [RU-0028029] | 51 to 74 | < 100 | < 25 | 26 to 50 | – | – | – | –
CCOCCCN(CC(=O)N(Cc1ccc2c(c1)OCO2)Cc1sccc1C)C(=O)NC(C)(C)C [RU-0052340] | > 75 | < 100 | 26 to 50 | < 25 | – | – | – | –
CCCCc1nc(CN2CCc3c([nH]c4ccccc34)C2c2cccc(OC)c2OC)c[nH]1 (stereo not drawn) [RU-0031879] | > 75 | < 100 | 26 to 50 | < 25 | – | – | – | –
COc1ccc(C(=O)c2ccccc2)c(O)c1O [RU-0001617] | 51 to 74 | > 1000 | < 25 | 26 to 50 | – | – | – | –
COCCCN(CC(=O)N1CCc2sccc2C1c1ccc(OC)cc1)C(=O)C(C)(C)CCl (stereo not drawn) [RU-0069950] | > 75 | < 100 | 51 to 74 | 51 to 74 | > 1000 | – | – | > 1000
COCCCN(CC(=O)N1CCc2sccc2C1COc1cccc(OC)c1)C(=O)c1ccccc1OC (stereo not drawn) [RU-0036294] | > 75 | 100 to 1000 | 26 to 50 | < 25 | – | – | – | –
CCOC(=O)C(c1cccc(OC)c1)C1C=CC(NC(=O)c2cccs2)C1 (stereo not drawn) [RU-0074560] | 51 to 74 | > 1000 | < 25 | < 25 | – | – | – | –
COc1cc(OC)cc(C2NC(=O)N(C)C3=C2C(=O)N(C2CCCCC2)C3)c1 (stereo not drawn) [RU-0047750] | > 75 | > 1000 | < 25 | 26 to 50 | – | – | – | –
Cc1ccc(CN(CCc2ccccc2)C(=O)CN(C(=O)NC(C)(C)C)C(C)C)o1 [RU-0072008] | > 75 | < 100 | 26 to 50 | < 25 | – | – | – | –
CCOc1ccccc1C(=O)NNC(=O)COc1cc(C)cc(C)c1 [RU-0023245] | > 75 | > 1000 | 26 to 50 | 26 to 50 | – | – | – | –
Cc1ccc(-n2nc(C)c(CCC(=O)N3CCc4ccccc4C3)c2C)cc1Cl [RU-0026074] | > 75 | – | < 25 | < 25 | – | – | – | –
COc1ccc(N2CCN(C(=O)C3CC=CCC3C(=O)NCCCCc3ccccc3)CC2)cc1 (stereo not drawn) [RU-0026167] | 51 to 74 | < 100 | 26 to 50 | < 25 | – | – | – | –
COCCNC(=O)c1ccc(CSc2nnc(-c3ccc(C)cc3)n2-c2ccccc2F)cc1 [RU-0051652] | 51 to 74 | > 1000 | < 25 | 26 to 50 | – | – | – | –
COc1nc(OCC#N)nc(N2CCCCC2)n1 [RU-0006256] | > 75 | < 100 | < 25 | 26 to 50 | – | – | – | –
CN(Cc1ccccc1)C(=O)CCC1CCN(C(=O)CCOc2ccccc2)CC1 [RU-0028727] | > 75 | < 100 | 51 to 74 | 51 to 74 | > 1000 | – | – | > 1000
CCOC(=O)C(c1ccc(OC)c(OC)c1)C1C=CC(NC(=O)c2ccc3c(c2)OCO3)C1 (stereo not drawn) [RU-0049030] | > 75 | < 100 | < 25 | < 25 | – | – | – | –
Cc1cc(C)c2c(c1C(=O)N1CCC3(CC1)C(=O)NCN3c1ccccc1)CC(C)(C)C2=O [RU-0025771] | > 75 | – | 26 to 50 | 26 to 50 | – | – | – | –
COCCCN(CC(=O)N1CCc2sccc2C1COc1cccc(OC)c1)C(=O)Cc1ccccc1 (stereo not drawn) [RU-0036264] | 51 to 74 | 100 to 1000 | < 25 | < 25 | – | – | – | –
CC(NCc1ccccc1)c1nc2ccccc2c(=O)n1-c1ccc(Cl)cc1 (stereo not drawn) [RU-0072535] | > 75 | < 100 | 26 to 50 | < 25 | – | – | – | –
O=C1CN(S(=O)(=O)c2c(F)cc(F)cc2F)CC2c3cccc(F)c3CCN12 (stereo not drawn) [RU-0076832] | > 75 | < 100 | 26 to 50 | 26 to 50 | – | – | – | –
COc1ccccc1N1CCN(C(=O)c2cc3n(n2)CCN(Cc2c(F)cccc2Cl)C3=O)CC1 [RU-0043595] | > 75 | < 100 | 51 to 74 | 51 to 74 | > 1000 | – | – | > 1000
Cc1ccc(CN(Cc2ccc(F)cc2)C(=O)CN(C(=O)NC(C)(C)C)C2CC2)s1 [RU-0052360] | > 75 | 100 to 1000 | 26 to 50 | < 25 | – | – | – | –
CC(NC(=O)c1cc2n(n1)CCN(Cc1c(Cl)cccc1Cl)C2=O)c1ccccc1 (stereo not drawn) [RU-0045115] | > 75 | < 100 | 26 to 50 | < 25 | – | – | – | –
C=C[C@@](C)(O)CCC1C(=C)CCC2[C@@](C)(CO)CCC[C@]12C (stereo partly drawn) [RU-0001327] | > 75 | > 1000 | 26 to 50 | 26 to 50 | – | – | – | –
COc1ccc(-c2nnc(SCc3ccc(C#N)cc3)n2-c2ccc(C)cc2)cc1 [RU-0046426] | > 75 | > 1000 | 51 to 74 | 26 to 50 | > 1000 | – | – | –
